From patent US20040102367A1, “Gene expression system based on chimeric receptors” (priority 2002, published 2004)

What was measured:
EcR+Usp = biological target: T1, EcR+Usp (Drosophila melanogaster, UniProt P34021); details: cited from earlier work
T1 sequence (P34021 1-878): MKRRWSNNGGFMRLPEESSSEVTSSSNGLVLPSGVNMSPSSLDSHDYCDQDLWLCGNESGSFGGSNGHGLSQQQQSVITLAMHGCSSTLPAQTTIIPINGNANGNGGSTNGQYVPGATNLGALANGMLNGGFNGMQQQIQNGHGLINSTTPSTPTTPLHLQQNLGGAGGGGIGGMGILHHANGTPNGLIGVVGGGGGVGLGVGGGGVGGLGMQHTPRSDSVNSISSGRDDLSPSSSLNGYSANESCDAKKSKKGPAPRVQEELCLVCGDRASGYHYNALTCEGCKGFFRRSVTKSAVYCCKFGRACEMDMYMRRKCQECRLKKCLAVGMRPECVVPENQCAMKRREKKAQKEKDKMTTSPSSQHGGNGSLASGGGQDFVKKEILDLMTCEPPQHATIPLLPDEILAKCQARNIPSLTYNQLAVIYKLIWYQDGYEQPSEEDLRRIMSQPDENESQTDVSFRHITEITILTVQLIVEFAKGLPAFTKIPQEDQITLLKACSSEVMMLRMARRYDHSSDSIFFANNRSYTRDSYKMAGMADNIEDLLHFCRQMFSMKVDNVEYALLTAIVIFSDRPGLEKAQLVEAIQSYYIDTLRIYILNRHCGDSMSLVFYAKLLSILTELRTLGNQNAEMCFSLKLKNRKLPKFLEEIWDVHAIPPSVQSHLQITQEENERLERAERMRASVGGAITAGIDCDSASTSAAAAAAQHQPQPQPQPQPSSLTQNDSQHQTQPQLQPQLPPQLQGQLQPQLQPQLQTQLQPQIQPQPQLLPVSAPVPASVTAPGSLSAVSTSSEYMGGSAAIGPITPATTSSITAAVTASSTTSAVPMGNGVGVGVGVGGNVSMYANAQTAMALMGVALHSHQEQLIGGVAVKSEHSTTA
T1 sequence (P20153 1-508 partner): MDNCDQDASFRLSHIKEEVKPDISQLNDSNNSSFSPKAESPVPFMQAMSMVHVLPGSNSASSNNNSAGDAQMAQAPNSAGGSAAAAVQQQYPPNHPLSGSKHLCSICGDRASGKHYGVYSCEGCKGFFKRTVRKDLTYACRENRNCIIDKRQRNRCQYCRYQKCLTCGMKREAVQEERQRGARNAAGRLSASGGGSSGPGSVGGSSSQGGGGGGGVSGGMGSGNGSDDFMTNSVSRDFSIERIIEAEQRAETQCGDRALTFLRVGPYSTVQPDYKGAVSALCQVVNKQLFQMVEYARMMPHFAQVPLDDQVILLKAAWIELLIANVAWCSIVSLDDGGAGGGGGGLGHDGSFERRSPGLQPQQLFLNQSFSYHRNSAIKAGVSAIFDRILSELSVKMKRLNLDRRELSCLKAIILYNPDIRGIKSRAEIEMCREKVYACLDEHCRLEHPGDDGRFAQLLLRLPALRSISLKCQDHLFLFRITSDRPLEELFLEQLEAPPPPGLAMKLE

EcR+RXR = biological target: T2, EcR+RXR (Drosophila melanogaster, UniProt P34021); details: compared with 20-hydroxyecdysone; literature; cited from earlier work
T2 sequence (P34021 1-878): T1 sequence (P34021 1-878)
T2 sequence (P19793 1-462 partner): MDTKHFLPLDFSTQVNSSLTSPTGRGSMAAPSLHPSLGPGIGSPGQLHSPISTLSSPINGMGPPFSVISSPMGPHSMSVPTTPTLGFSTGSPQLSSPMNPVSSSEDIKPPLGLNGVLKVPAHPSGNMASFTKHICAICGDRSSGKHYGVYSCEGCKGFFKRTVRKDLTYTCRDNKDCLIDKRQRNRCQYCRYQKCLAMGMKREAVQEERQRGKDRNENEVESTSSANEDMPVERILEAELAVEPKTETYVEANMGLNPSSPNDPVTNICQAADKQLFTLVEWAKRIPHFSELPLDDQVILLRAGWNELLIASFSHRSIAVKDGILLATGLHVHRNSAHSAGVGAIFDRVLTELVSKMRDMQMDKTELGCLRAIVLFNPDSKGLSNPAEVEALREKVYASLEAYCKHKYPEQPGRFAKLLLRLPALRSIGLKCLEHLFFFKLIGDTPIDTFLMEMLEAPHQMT

GRU variant 1.2 = biological target: T3, GRU variant 1.2 (Bombyx mori, UniProt P49881); assay: transient transfection luciferase expression assay (GalO-luc reporter) with RXR-USP chimeric protein GRU variant 1.2; assay type: cell-based; details: 1 micromolar ligand, 48 hrs
T3 construct: BEcR hinge domain and HBD (corresponding to amino acids 272 to 606); expressed in transfected cells
T3 sequence (P49881 272-606): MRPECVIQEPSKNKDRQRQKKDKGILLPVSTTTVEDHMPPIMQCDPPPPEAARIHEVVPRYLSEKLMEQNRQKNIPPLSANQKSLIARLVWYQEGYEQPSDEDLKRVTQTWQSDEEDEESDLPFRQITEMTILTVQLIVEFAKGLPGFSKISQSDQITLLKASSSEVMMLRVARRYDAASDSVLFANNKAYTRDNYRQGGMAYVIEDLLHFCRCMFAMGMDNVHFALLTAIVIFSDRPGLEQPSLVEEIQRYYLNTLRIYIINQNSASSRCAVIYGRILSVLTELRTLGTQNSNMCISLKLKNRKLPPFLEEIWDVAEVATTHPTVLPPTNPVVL
Procedure: (§1) All construction and cloning was performed by standard methods and as described by Suhr et al., in Proc Natl Acad Sci USA 95(14):7999-8004 (1998) for similar chimeric proteins. For the VHB protein combining the transactivation domain of HSV VP16 protein with the hinge and hormone binding/heterodimerization domain (HBD) of Bombyx mori EcR (BEcR), the 77 amino acid (231 base pair) VP16 domain was amplified by PCR with an in-frame Mlul site at the 3′ end that was ligated with an identical site introduced into the 5′ end of the BEcR hinge domain and HBD (corresponding to amino acids 272 to 606). The final construct, termed VHB, functionally couples the VP16 domain with the BEcR high-affinity hormone responsive domains (see FIG. 3). This DNA was introduced into a number of expression constructs for expression in transduced cells.
(§2) The DNA-binding dimer partner protein fused the 95 amino acid Gal4 DNA binding domain via a BspE I site at the 3′ end to a region of either the RXR or Usp protein with high affinity ligand dependent interaction with BEcR. These variants used amino acids 200-462 of the human RXR alpha protein or amino acids 169-507 of the Drosophila Usp protein (see FIG. 3). These proteins are termed GR (for the RXR variant) or GU (for the Usp variant). […]

GRU1.2D-3 = biological target: T4, GRU1.2D-3 (Bombyx mori, UniProt P49881); assay: transient transfection luciferase expression assay (GalO-luc reporter) with VHB and GRU1.2D-3; assay type: cell-based; details: GRU1.2D-3 point mutant (Cys329 to Gly); 1 micromolar ligand, 48 hrs
T4 construct: BEcR hinge domain and HBD (corresponding to amino acids 272 to 606); expressed in transfected cells
T4 sequence (P49881 272-606): T3 sequence (P49881 272-606)
Procedure: as §1, §2

[1] = system: mammals and other non-insect species; details: extensive testing in animal hosts; cited from earlier work

SMILES	stimulation of EcR+Usp binding of EcREs over levels without ligand (EcR+Usp; literature (Christopherson, Thomas, Yao)) [fold]	stimulation of formation of EcR+RXR heterodimers (EcR+RXR)	stimulation of formation of EcR+Usp heterodimers (EcR+Usp; literature)	response to ligand (transactivation) (GRU variant 1.2)	response to ligand (transactivation) (GRU1.2D-3)	toxicity to mammals and other non-insect species [1]
CC(C)CC[C@@H](O)[C@](C)(O)[C@H]1CC[C@@]2(O)C3=CC(=O)[C@]4(O)C[C@@H](O)[C@@H](O)C[C@]4(C)[C@H]3[C@H](O)C[C@]12C [muristerone A]	3 to 7	more highly stimulated				
CC(C)(O)CC[C@@H](O)[C@](C)(O)[C@H]1CC[C@@]2(O)C3=CC(=O)[C@@H]4C[C@@H](O)[C@@H](O)C[C@]4(C)[C@H]3CC[C@]12C [20-OH ecdysone, 20-Hydroxy-ecdysone]			potently stimulated	good response	high level response	
CCc1ccc(C(=O)NN(C(=O)c2cc(C)cc(C)c2)C(C)(C)C)cc1 [tebufenozide]				good response	high level response	very low toxicity
